Reference: ChEMBL document CHEMBL3856212, “Synthesis, anti-proliferative and genotoxicity studies of 6-chloro-5-(2-substituted-ethyl)-1,3-dihydro-2H-indol-2-ones and 6-chloro-5-(2-chloroethyl)-3-(alkyl/ary-2-ylidene)indolin-2-ones” (Eur J Med Chem, 2016)

What was measured:
[1] = Cytotoxicity against human MOLT4 cells assessed as growth inhibition after 48 hrs by SRB assay; assay type: functional; conditions: MOLT-4, 48 h; for CC50: read-out: LD50 (the source's name)
[2] = Cytotoxicity against human EKVX cells assessed as growth inhibition after 48 hrs by SRB assay; assay type: functional; conditions: for CC50: read-out: LD50 (the source's name)
[3] = Cytotoxicity against human HCT15 cells assessed as growth inhibition after 48 hrs by SRB assay; assay type: functional; conditions: HCT-15, 48 h; for CC50: read-out: LD50 (the source's name)
[4] = Cytotoxicity against human HT-29 cells assessed as growth inhibition after 48 hrs by SRB assay; assay type: functional; conditions: HT-29, 48 h; for CC50: read-out: LD50 (the source's name)
[5] = Cytotoxicity against human KM12 cells assessed as growth inhibition after 48 hrs by SRB assay; assay type: functional; conditions: KM12, 48 h; for CC50: read-out: LD50 (the source's name)
[6] = Cytotoxicity against human MDA-MB-435 cells assessed as growth inhibition after 48 hrs by SRB assay; assay type: functional; conditions: MDA-MB-435, 48 h, read-out: LD50 (the source's name)
[7] = Cytotoxicity against human UACC257 cells assessed as growth inhibition after 48 hrs by SRB assay; assay type: functional; conditions: UACC-257, 48 h; for CC50: read-out: LD50 (the source's name)
[8] = Cytotoxicity against human OVCAR5 cells assessed as growth inhibition after 48 hrs by SRB assay; assay type: functional; conditions: OVCAR-5, 48 h; for CC50: read-out: LD50 (the source's name)
[9] = Cytotoxicity against human NCI-ADR-RES cells assessed as growth inhibition after 48 hrs by SRB assay; assay type: functional; conditions: for CC50: read-out: LD50 (the source's name)
[10] = Cytotoxicity against human Caki1 cells assessed as growth inhibition after 48 hrs by SRB assay; assay type: functional; conditions: CAKI-1, 48 h; for CC50: read-out: LD50 (the source's name)
[11] = Cytotoxicity against human MCF7 cells assessed as growth inhibition after 48 hrs by SRB assay; assay type: functional; conditions: MCF7, 48 h; for CC50: read-out: LD50 (the source's name)
[12] = Cytotoxicity against human BT549 cells assessed as growth inhibition after 48 hrs by SRB assay; assay type: functional; conditions: BT-549, 48 h; for CC50: read-out: LD50 (the source's name)
[13] = Cytotoxicity against human T47D cells assessed as growth inhibition after 48 hrs by SRB assay; assay type: functional; conditions: for CC50: read-out: LD50 (the source's name)
[14] = Cytotoxicity against human A549 cells assessed as assessed as growth inhibition at 10^-5 M after 48 hrs by SRB assay relative to control; assay type: functional; conditions: A549, 48 h, read-out: GI
[15] = Cytotoxicity against human NCI-H23 cells assessed as assessed as growth inhibition at 10^-5 M after 48 hrs by SRB assay relative to control; assay type: functional; conditions: NCI-H23, 48 h, read-out: GI
[16] = Cytotoxicity against human HCC2998 cells assessed as assessed as growth inhibition at 10^-5 M after 48 hrs by SRB assay relative to control; assay type: functional; conditions: HCC 2998, 48 h, read-out: GI
[17] = Cytotoxicity against human KM12 cells assessed as assessed as growth inhibition at 10^-5 M after 48 hrs by SRB assay relative to control; assay type: functional; conditions: KM12, 48 h, read-out: GI
[18] = Cytotoxicity against human SF295 cells assessed as assessed as growth inhibition at 10^-5 M after 48 hrs by SRB assay relative to control; assay type: functional; conditions: SF-295, 48 h, read-out: GI
[19] = Cytotoxicity against human SNB19 cells assessed as assessed as growth inhibition at 10^-5 M after 48 hrs by SRB assay relative to control; assay type: functional; conditions: SNB-19, 48 h, read-out: GI
[20] = Cytotoxicity against human M14 cells assessed as assessed as growth inhibition at 10^-5 M after 48 hrs by SRB assay relative to control; assay type: functional; conditions: M14, 48 h, read-out: GI
[21] = Cytotoxicity against human MDA-MB-435 cells assessed as assessed as growth inhibition at 10^-5 M after 48 hrs by SRB assay relative to control; assay type: functional; conditions: MDA-MB-435, 48 h, read-out: GI
[22] = Cytotoxicity against human SK-MEL-5 cells assessed as assessed as growth inhibition at 10^-5 M after 48 hrs by SRB assay relative to control; assay type: functional; conditions: SK-MEL-5, 48 h, read-out: GI
[23] = Cytotoxicity against human OVCAR4 cells assessed as assessed as growth inhibition at 10^-5 M after 48 hrs by SRB assay relative to control; assay type: functional; conditions: OVCAR-4, 48 h, read-out: GI
[24] = Cytotoxicity against human OVCAR5 cells assessed as assessed as growth inhibition at 10^-5 M after 48 hrs by SRB assay relative to control; assay type: functional; conditions: OVCAR-5, 48 h, read-out: GI
[25] = Cytotoxicity against human NCI-ADR-RES cells assessed as assessed as growth inhibition at 10^-5 M after 48 hrs by SRB assay relative to control; assay type: functional; conditions: read-out: GI
[26] = Cytotoxicity against human SN12C cells assessed as assessed as growth inhibition at 10^-5 M after 48 hrs by SRB assay relative to control; assay type: functional; conditions: read-out: GI
[27] = Cytotoxicity against human TK10 cells assessed as assessed as growth inhibition at 10^-5 M after 48 hrs by SRB assay relative to control; assay type: functional; conditions: TK-10, 48 h, read-out: GI
[28] = Cytotoxicity against human UO31 cells assessed as assessed as growth inhibition at 10^-5 M after 48 hrs by SRB assay relative to control; assay type: functional; conditions: UO-31, 48 h, read-out: GI
[29] = Cytotoxicity against human Hs 578T cells assessed as assessed as growth inhibition at 10^-5 M after 48 hrs by SRB assay relative to control; assay type: functional; conditions: read-out: GI
[30] = Cytotoxicity against human BT549 cells assessed as assessed as growth inhibition at 10^-5 M after 48 hrs by SRB assay relative to control; assay type: functional; conditions: BT-549, 48 h, read-out: GI
[31] = Cytotoxicity against human T47D cells assessed as assessed as growth inhibition at 10^-5 M after 48 hrs by SRB assay relative to control; assay type: functional; conditions: read-out: GI
[32] = organism: Mus musculus; assay: Genotoxicity in mouse EAC cells at 125 uM after 24 hrs by micronucleus assay (reference value: 3.5 +/- 0.30%); assay type: toxicity, cell-based; conditions: ehrlich
[33] = organism: Mus musculus; assay: Genotoxicity in mouse EAC cells at 375 uM after 24 hrs by micronucleus assay (reference value: 3.5 +/- 0.30%); assay type: toxicity, cell-based; conditions: ehrlich
[34] = Induction of apoptosis in mouse EAC cells at 375 uM after 24 hrs by acridine orange dye-based fluorescence microscopy (reference value: 0.66 +/- 0.33%); assay type: cell-based; conditions: ehrlich
[35] = Cytotoxicity against human NCI-H322M cells assessed as assessed as growth inhibition at 10^-5 M after 48 hrs by SRB assay relative to control; assay type: functional; conditions: read-out: GI

Compound: O=C1Cc2cc(CCn3ccnc3)c(Cl)cc2N1
- GI50 [1]: 5670 nM
- TGI [1]: > 1000 nM
- CC50 [1]: > 1000 nM
- GI50 [2]: 6130 nM
- TGI [2]: > 1000 nM
- CC50 [2]: > 1000 nM
- GI50 [3]: 7070 nM
- TGI [3]: > 1000 nM
- CC50 [3]: > 1000 nM
- GI50 [4]: 1000 nM
- TGI [4]: > 1000 nM
- CC50 [4]: > 1000 nM
- GI50 [5]: 3580 nM
- TGI [5]: 9840 nM
- CC50 [5]: > 1000 nM
- CC50 [6]: > 1000 nM
- CC50 [7]: > 1000 nM
- GI50 [8]: 4480 nM
- TGI [8]: > 1000 nM
- CC50 [8]: > 1000 nM
- GI50 [9]: 5460 nM
- TGI [9]: > 1000 nM
- CC50 [9]: > 1000 nM
- GI50 [10]: 6320 nM
- TGI [10]: > 1000 nM
- CC50 [10]: > 1000 nM
- GI50 [11]: 4120 nM
- TGI [11]: > 1000 nM
- CC50 [11]: > 1000 nM
- GI50 [12]: 9510 nM
- TGI [12]: > 1000 nM
- CC50 [12]: > 1000 nM
- GI50 [13]: 7560 nM
- TGI [13]: > 1000 nM
- CC50 [13]: > 1000 nM
- inhibition of growth at 10 µM [14]: 33.3%
- inhibition of growth at 10 µM [15]: 73.3%
- inhibition of growth at 10 µM [16]: 28.5%
- inhibition of growth at 10 µM [17]: 67.8%
- inhibition of growth at 10 µM [18]: 36.6%
- inhibition of growth at 10 µM [19]: 28.5%
- inhibition of growth at 10 µM [20]: 76.3%
- inhibition of growth at 10 µM [21]: 72%
- inhibition of growth at 10 µM [22]: 67.8%
- inhibition of growth at 10 µM [23]: 2.81%
- inhibition of growth at 10 µM [24]: 18.9%
- inhibition of growth at 10 µM [25]: 54.3%
- inhibition of growth at 10 µM [26]: 48.8%
- inhibition of growth at 10 µM [27]: -23.4%
- inhibition of growth at 10 µM [28]: 39.3%
- inhibition of growth at 10 µM [29]: 68.9%
- inhibition of growth at 10 µM [30]: 30.3%
- inhibition of growth at 10 µM [31]: 5.51%
- Activity [32]: 2.76%
- Activity [33]: 3.43%
- Activity [34]: 0.66%
- inhibition of growth at 10 µM [35]: 9.68%

Compound: O=C1Cc2cc(CCN3CCNCC3)c(Cl)cc2N1
- GI50 [1]: 1000 nM
- TGI [1]: > 1000 nM
- CC50 [1]: > 1000 nM
- GI50 [2]: 3580 nM
- TGI [2]: > 1000 nM
- CC50 [2]: > 1000 nM
- GI50 [3]: 6230 nM
- TGI [3]: > 1000 nM
- CC50 [3]: > 1000 nM
- GI50 [4]: 1000 nM
- TGI [4]: > 1000 nM
- CC50 [4]: > 1000 nM
- GI50 [5]: 3960 nM
- TGI [5]: > 1000 nM
- CC50 [5]: > 1000 nM
- CC50 [6]: > 1000 nM
- GI50 [7]: 6520 nM
- TGI [7]: > 1000 nM
- CC50 [7]: > 1000 nM
- GI50 [8]: 7920 nM
- TGI [8]: > 1000 nM
- CC50 [8]: > 1000 nM
- GI50 [9]: 5110 nM
- TGI [9]: > 1000 nM
- CC50 [9]: > 1000 nM
- GI50 [10]: 6110 nM
- TGI [10]: > 1000 nM
- CC50 [10]: > 1000 nM
- GI50 [11]: 3650 nM
- TGI [11]: > 1000 nM
- CC50 [11]: > 1000 nM
- GI50 [12]: 8180 nM
- TGI [12]: > 1000 nM
- CC50 [12]: > 1000 nM
- GI50 [13]: 2910 nM
- TGI [13]: > 1000 nM
- CC50 [13]: > 1000 nM
- inhibition of growth at 10 µM [14]: 51.1%
- inhibition of growth at 10 µM [15]: 77.2%
- inhibition of growth at 10 µM [16]: 24.3%
- inhibition of growth at 10 µM [17]: 70.4%
- inhibition of growth at 10 µM [18]: 46.4%
- inhibition of growth at 10 µM [19]: 42.4%
- inhibition of growth at 10 µM [20]: 75.5%
- inhibition of growth at 10 µM [21]: 82%
- inhibition of growth at 10 µM [22]: 65.4%
- inhibition of growth at 10 µM [23]: 19%
- inhibition of growth at 10 µM [24]: 34.7%
- inhibition of growth at 10 µM [25]: 51.6%
- inhibition of growth at 10 µM [26]: 52.8%
- inhibition of growth at 10 µM [27]: 10.9%
- inhibition of growth at 10 µM [28]: 36.8%
- inhibition of growth at 10 µM [29]: 69.9%
- inhibition of growth at 10 µM [30]: 40.9%
- inhibition of growth at 10 µM [31]: 17.3%
- Activity [32]: 3.36%
- Activity [33]: 6.33%
- Activity [34]: 1.33%
- inhibition of growth at 10 µM [35]: 19.3%
